Measurements from patent publication US9388216B2, “Methods of treating reproductive cancer” (Medical Research Council, priority 2006, dated 2016).
Non-standard residues stand in square brackets, D forms with d. pGlu = O=C1CC[C@@H](C(=O)O)N1

Columns and labels:
[1] = test system: GnRH-induced PARP cleavage (caspase 3 activation) in HEK293/rGnRHR cells; assay: Inhibition of GnRH-induced PARP cleavage by chemical inhibitors; details: for remaining GnRH I-induced PARP cleavage, mean±S.E.M.: 100 nM GnRH I plus inhibitor; for remaining GnRH I-induced PARP cleavage, mean±S.E.M. / remaining GnRH II-induced PARP cleavage, mean±S.E.M. / effect on GnRH-induced apoptosis / caspase 3 activation (in words): 48 h, complete medium; for remaining GnRH II-induced PARP cleavage, mean±S.E.M.: 100 nM GnRH II plus inhibitor
Protocol: Cells were maintained in Dulbecco's modified Eagles medium (DMEM) (Sigma) supplemented with 10% fetal bovine serum, 2% glutamine and 1% penicillin (10,000 units/ml)/streptomycin (10,000 μg/ml) at 37° C. in a humidified 5% CO2 atmosphere. Cell treatments were performed at 37° C. in serum-containing medium with varying molecule concentrations and time periods, as indicated in the figure legends.
After stimulation of cells growing on 6-well plates, cell monolayers were placed on ice, washed twice in ice-cod Dulbecco's phosphate buffered saline (DPBS), and lysed in a NP-40-based solubilisation buffer (5 mM HEPES, 0.25 M NaCl, 0.5% NP-40, 10% glycerol, 2 mM EDTA pH8.0, 1 mM PMSF, 0.01 mg/ml leupeptin, 1 mM Na2VO4). Solubilised lysates were clarified by centrifugation at 15,000 rpm for 15 min. A 50 μl-aliquot of clarified whole-cell lysate was mixed with an equal volume of 2× Laemmli sample buffer, resolved by SDS-polyacrylamide gel electrophoresis (SDS-PAGE) and transferred to a PVDF membrane (NEN Life Sciences/PerkinElmer Life and Analytical Sciences; Beaconsfield, Bucks, UK). These membranes were blocked in a 4% bovine serum albumin, 50 mM Tris-HCl, pH 7.0, 0.05% Tween-20 and 0.05% NP-40 blocking solution. […] Apoptosis was assessed by incubating the PVDF membranes with a 1:1,000 dilution of anticleaved PARP rabbit polyclonal antibody at 4° C. with gentle shaking overnight. […] An alkaline phosphatase conjugated IgG (Sigma) was employed as a secondary antibody in all cases. Visualization of proteins was performed using enzyme-linked chemifluoresence (Amersham Biosciences Ltd.; St. Giles, Bucks, UK) and quantified using a Typhoon 9400 Phosphorimager.
Then, cells were lysed and a western blot with specific anti-cleaved PARP antibody was carried out as explained before.

[2] = test system: HEK293/hGnRHR cells; assay: Cell growth inhibition (viable cell number after 5 days of continuous treatment) in HEK293/hGnRHR cells; type: cell-based, human; details: human receptor, 5 days
Protocol: (§1) For the first method, HEK293 cells expressing various GnRH receptor constructs were seeded into 12-well PLL-coated plates at 50,000 cells (in 1 ml)/well and cultured with continuous GnRH exposure for five days, adding fresh peptide every day. Trypan Blue-excluding cells were then counted with a haemocytometer. For the second method, cells were seeded into 96-well plates at 5,000 cells (in 100 μl)/well and treated exactly as described before. 10 μl WST-1 reagent (Roche Diagnostics Ltd.; Lewes, East Sussex, UK) was added directly to each well and, after 3 h at 37° C., absorbance was read at 450 nm (with a reference at 690 nm) against a background control as blank using a microplate ELISA reader.
(§2) Bar graphs and curves were obtained using Prism 3.0 (GraphPad Software, Inc.: San Diego, Calif., USA). IC50 and EC50 values were determined by non-linear regression analysis. Curves were best-fitted to a one-site model. […] Values were normalised as specified in the figure legends.
(§3) Antiproliferation/apoptosis was estimated by determining cell number after five days of continuous exposure to the peptides. In parallel, this response was compared to the classical Gq coupled-PLCβ activation induced by GnRH peptides, as measured by the very well characterized inositol phosphates accumulation protocol. Both outputs were determined in two HEK293 cell lines; one expressing the rat receptor and the other expressing the human receptor. The human cell line was included in the study because this species may be clinically more relevant and the very low receptor expression may better reflect the in vivo tumoural state. In fact, due to poor binding, the precise affinity of the analogues on this cell line could not be determined.

[3] = test system: HEK293/rGnRHR cells; assay: Cell growth inhibition (viable cell number after 5 days of continuous treatment) in HEK293/rGnRHR cells; type: cell-based, rat; details: rat receptor, 5 days
Protocol: as §1, §2, §3

| Compound | remaining GnRH I-induced PARP cleavage, mean±S.E.M. [1] | remaining GnRH II-induced PARP cleavage, mean±S.E.M. [1] | effect on GnRH-induced apoptosis / caspase 3 activation (in words) [1] | other results |
| --- | --- | --- | --- | --- |
| NCCOB(c1ccccc1)c1ccccc1 [2-APB, 2-aminoethyl-diphenilborinate] |  |  |  | PARP cleavage caused by the inhibitor itself (cytotoxicity) ([1]; inhibitor alone): significant PARP cleavage by themselves |
| COc1cc2ncnc(Nc3cccc(Cl)c3)c2cc1OC [AG1478] | 13±10 | 18±11 |  |  |
| COc1ccc2c(c1)c(C1=C(c3c[nH]c4ccccc34)C(=O)NC1=O)cn2CCCN(C)C [Gö 6983] | 47±22 | 35±18 | clearly more efficient than Ro-31-8220 | extent of the effect upon GnRH-stimulated apoptosis ([1]; discussion): ~40% |
| O=C1c2ccccc2-c2n[nH]c3cccc1c23 [JNKII inhibitor] | 84±29 | 72±22 |  |  |
| COc1cccc(-c2cc(=O)c3ccccc3o2)c1N [PD98059] | 17±6 | 14±13 |  |  |
| CC(C)(C)n1nc(-c2ccc(Cl)cc2)c2c(N)ncnc21 [PP2] | 20±4 | 18±2 |  |  |
| Cn1cc(C2=C(c3cn(CCCSC(=N)N)c4ccccc34)C(=O)NC2=O)c2ccccc21 [Ro-31-8220] |  |  | no effect |  |
| CO[C@H]1[C@@H](OC)C[C@H](C)[C@@H](OC)C2=CC(=O)C=C(NC(=O)/C(C)=C/C=C\[C@H](OC)[C@@H](OC(N)=O)/C(C)=C/[C@@H]1C)C2=O [herbimycin A] | 9±1 | 41±4 |  |  |
| PTX: Gi inhibitor from Biomol |  |  | not having any effect |  |
| [His5,Trp7]GnRH I: double mutant GnRH I incorporating His5 and Trp7 of GnRH II ([pGlu]HWSHGWRPG-NH2; ends and bridges not checked; UniProt P01148 24-33, looked up, variant Y5H L7W) |  |  |  | antiproliferative/apoptotic potency compared with GnRH I (in words) [2]: improved antiproliferative/apoptotic capacity; antiproliferative/apoptotic potency compared with GnRH I (in words) [3]: improved antiproliferative/apoptotic capacity |
